Test results: patent US9451775B2, “Heterocyclic compounds as pesticides” (Bayer Intellectual Property GmbH, priority 2008, dated 2016)
Where two headings read alike, the source gives them in different places.

How the values were obtained:
[1] = system: green peach aphid (Myzus persicae); experiment: Myzus test (spray treatment); format: in vivo; conditions: foliar, read-out: activity (effect in %, aphids killed)
Description: Myzus Test (Spray Treatment)
• Solvents: 78.0 parts by weight of acetone • 1.5 parts by weight of dimethylformamide • Emulsifier: 0.5 part by weight of alkylaryl polyglycol ether
To produce a suitable preparation of active compound, 1 part by weight of active compound is mixed with the stated amounts of solvents and emulsifier, and the concentrate is diluted with emulsifier-containing water to the desired concentration.
Discs of leaves of Chinese cabbage (Brassica pekinensis) which are heavily infested by all stages of the green peach aphid (Myzus persicae) are sprayed with an active compound preparation of the desired concentration.
After the desired period of time, the effect in % is determined. 100% means that all aphids have been killed; 0% means that none of the aphids have been killed.

[2] = logP determination by HPLC (formic acid method); format: physicochemical; conditions: acidic range (pH 3.4), 55° C., read-out: logP (HCOOH)
Description: 1) Description of the method for determining the logP values (formic acid method)
The logP values given in the table were determined in accordance with EEC Directive 79/831 Annex V.A8 by HPLC (High Performance Liquid Chromatography) on a reversed-phase column (C18). Temperature: 55° C.
Mobile phases for the determination in the acidic range (pH 3.4):
Mobile phase A: Acetonitrile+1 ml of formic acid/litre. Mobile phase B: water+0.9 ml of formic acid/litre.
Gradient: from 10% mobile phase A/90% mobile phase B to 95% mobile phase A/5% mobile phase B in 4.25 min.
Calibration was carried out using unbranched alkan-2-ones (having 3 to 16 carbon atoms) with known logP values (determination of the logP values by the retention times using linear interpolation between two successive alkanones). The lambda max values were determined in the maxima of the chromatographic signals using the UV spectra from 200 nm to 400 nm.

[3] = application rate of 500 g/ha, sprayed Chinese cabbage leaf discs
[4] = reversed-phase HPLC column (C18), pH 3.4, HPLC on reversed-phase column (C18)

| SMILES | chromatographic logP [2, 4] | pest or weed control at 500 g/ha [1, 3] | pest or weed control at 500 g/ha ([1]; in Brassica rapa) | chromatographic logP ([2]; HPLC on reversed-phase column (C18)) |
| --- | --- | --- | --- | --- |
| Cc1nc(-c2cccnc2)sc1-c1ccnc(-c2ncc(F)cc2F)n1 [compound 48] | 2.08 | ≥ 80% | – | – |
| COC(=O)/C(=N\O)c1nccc(-c2sc(-c3cccnc3)nc2C)n1 [compound 53] | 1.58 | ≥ 80% | – | – |
| COc1cc(OC)nc(-c2nccc(-c3sc(-c4cccnc4)nc3C)n2)n1 [compound 59] | 2.12 | ≥ 80% | – | – |
| Cc1nc(-c2cccnc2)sc1-c1ccnc(C(F)(F)C(F)(F)C(F)(F)F)n1 [compound 60] | – | – | ≥ 80% | 3.84 |
| Cc1nc(-c2cccnc2)sc1-c1nc(C(C)C)no1 [compound 62] | 3.23 | ≥ 80% | – | – |
| Cc1nc(-c2cccnc2)sc1-c1nc(-c2cccnc2)no1 [compound 63] | 2.51 | ≥ 80% | – | – |
| Cc1nc(-c2cccnc2)sc1-c1nc(C(F)(F)F)no1 [compound 64] | 3.34 | ≥ 80% | – | – |
| Cc1nc(-c2cccnc2)sc1-c1ccnc(-n2[nH]c(C(F)(F)F)cc2=O)n1 [compound 66] | 2.9 | ≥ 80% | – | – |
| c1cnc(N2CCOC(c3cnc(-c4cccnc4)s3)=N2)nc1 [compound 67] | 1.9 | ≥ 80% | – | – |
| c1cnc(-c2noc(-c3cnc(-c4cccnc4)s3)n2)nc1 [compound 70] | 1.4 | ≥ 80% | – | – |
| FC(F)(F)c1noc(-c2cnc(-c3cccnc3)s2)n1 [compound 71] | 2.7 | ≥ 80% | – | – |
| Cc1nc(-c2cccnc2)sc1-c1nc(-c2cc3ccccc3cn2)no1 [compound 72] | 3.11 | ≥ 80% | – | – |
| Cc1nc(-c2cccnc2)sc1-c1nc(-c2nc(C)c(C)c(C)n2)no1 [compound 73] | 2.34 | ≥ 80% | – | – |
| COc1cc(OC)nc(-c2noc(-c3sc(-c4cccnc4)nc3C)n2)n1 [compound 74] | 2.81 | ≥ 80% | – | – |
| Cc1nc(-c2cccnc2)sc1-c1nc(C(F)(F)F)co1 [compound 75] | 2.97 | ≥ 80% | – | – |
| c1cnc(-c2nccc(-c3cnc(-c4cccnc4)s3)n2)nc1 [compound 88] | 1.05 | ≥ 80% | – | – |
| c1cnc(-n2ccc(-c3cnc(-c4cccnc4)s3)n2)nc1 [compound 89] | 1.48 | ≥ 80% | – | – |
| Cc1nc(-c2cccnc2)sc1-c1nc(-c2nnc(C(F)(F)F)n2C)no1 [compound 91] | 2.41 | ≥ 80% | – | – |
| Cc1nc(-c2cccnc2)sc1-c1nc(N)nc(C(C)F)n1 (centres unmarked) [compound 93] | 1.86 | ≥ 80% | – | – |
| Cc1nc(-c2cccnc2)sc1-c1nccc(C(F)(F)F)n1 [compound 94] | 3.14 | ≥ 80% | – | – |
| Cc1nc(-c2cccnc2)sc1-c1cccc(N2CCOCC2)n1 [compound 96] | 2.58 | ≥ 80% | – | – |
| Cc1nc(-c2cccnc2)sc1-c1cccc(N2CC(C)OC(C)C2)n1 (centres unmarked) [compound 98] | 3.55 | ≥ 80% | – | – |

Continued, in another order:

| chromatographic logP [2, 4] | SMILES | pest or weed control at 500 g/ha [1, 3] | pest or weed control at 500 g/ha ([1]; in Brassica rapa) | chromatographic logP ([2]; HPLC on reversed-phase column (C18)) |
| --- | --- | --- | --- | --- |
| 1.59 | Cc1nc(-c2cccnc2)sc1-c1ccnc(-c2cnccn2)n1 [compound 51] | ≥ 80% | – | – |
| 2.35 | Cc1nc(-c2cccnc2)sc1-c1ccnc(-c2ccco2)n1 [compound 52] | ≥ 80% | – | – |
| 1.49 | Cc1cccc(-c2nccc(-c3sc(-c4cccnc4)nc3C)n2)n1 [compound 54] | ≥ 80% | – | – |
| 1.49 | Cc1ccc(-c2nccc(-c3sc(-c4cccnc4)nc3C)n2)nc1C [compound 55] | ≥ 80% | – | – |
| 2.08 | Cc1nc(-c2nccc(-c3sc(-c4cccnc4)nc3C)n2)cs1 [compound 56] | ≥ 80% | – | – |
| 1.88 | CCc1cccc(-c2nccc(-c3sc(-c4cccnc4)nc3C)n2)n1 [compound 57] | ≥ 80% | – | – |
| 2.25 | CCCc1cccc(-c2nccc(-c3sc(-c4cccnc4)nc3C)n2)n1 [compound 58] | ≥ 80% | – | – |
| 1.57 | COCc1nccc(-c2sc(-c3cccnc3)nc2C)n1 [compound 61] | ≥ 80% | – | – |
| 1.36 | Cc1cc(C)nc(-c2nccc(-c3sc(-c4cccnc4)nc3C)n2)c1 [compound 65] | ≥ 80% | – | – |
| 1.62 | Cc1nc(-c2cccnc2)sc1-c1cccc(S(C)(=O)=O)n1 [compound 68] | ≥ 80% | – | – |
| 1.2 | Cc1nc(-c2cccnc2)sc1-c1ccnc(Cn2cncn2)n1 [compound 69] | ≥ 80% | – | – |
| 3.11 | Cc1nc(-c2cccnc2)sc1-c1ccn(-c2nnc(C(C)C)s2)n1 [compound 76] | ≥ 80% | – | – |
| 2.5 | Cc1nc(-c2cccnc2)sc1-c1ccn(-c2ncccc2[N+](=O)[O-])n1 [compound 77] | ≥ 80% | – | – |
| 2.99 | Cc1nc(-c2cccnc2)sc1-c1ccn(-c2cnc(C(F)(F)F)nc2)n1 [compound 78] | ≥ 80% | – | – |
| 3.94 | CCOc1cc(OCC)nc(-n2ccc(-c3sc(-c4cccnc4)nc3C)n2)n1 [compound 79] | ≥ 80% | – | – |
| 2.27 | Cc1nc(-c2cccnc2)sc1-c1ccn(-c2nnc(C(F)(F)F)n2C)n1 [compound 80] | ≥ 80% | – | – |
| 2.8 | COc1cc(OC)nc(-n2ccc(-c3sc(-c4cccnc4)nc3C)n2)n1 [compound 81] | ≥ 80% | – | – |
| 2.23 | Cc1nc(-c2cccnc2)sc1-c1ccn(-c2cnccc2F)n1 [compound 82] | ≥ 80% | – | – |
| 3.63 | Cc1nc(-c2cccnc2)sc1-c1ccn(-c2nnc(C(C)(C)C)s2)n1 [compound 83] | ≥ 80% | – | – |
| 2.61 | CCc1nnc(-n2ccc(-c3sc(-c4cccnc4)nc3C)n2)s1 [compound 84] | ≥ 80% | – | – |
| 2.8 | Cc1nc(-c2cccnc2)sc1-c1ccn(-c2nnc(C(F)F)s2)n1 [compound 85] | ≥ 80% | – | – |
| 2.72 | Cc1nc(-c2cccnc2)sc1-c1ccn(-c2nnc(C3CC3)s2)n1 [compound 86] | ≥ 80% | – | – |
| 3.47 | Cc1nc(-c2cccnc2)sc1-c1ccn(-c2nc(Cl)cs2)n1 [compound 87] | ≥ 80% | – | – |
| 1.39 | Cc1nc(-c2cccnc2)sc1-c1ccncn1 [compound 90] | ≥ 80% | – | – |
| 3.84 | Cc1nc(-c2cccnc2)sc1-c1ccn(-c2cccc(Cl)n2)n1 [compound 92] | ≥ 80% | – | – |
| 2.03 | COC(=O)c1cccc(-c2sc(-c3cccnc3)nc2C)n1 [compound 95] | ≥ 80% | – | – |
| 2.93 | Cc1nc(-c2cccnc2)sc1-c1cccc(-n2cccn2)n1 [compound 97] | ≥ 80% | – | – |
